In patent US9476099B2 (TRUSTEES OF DARTMOUTH COLLEGE, priority 2012, dated 2016):

Test system: NT2/D1-R1 control and DNMT3B knockdown cells
Assay: Genome-wide expression analysis with PAM clusters, control and DNMT3B knockdown cells (Tables 8-14)
Details: 10 nM, 3 days; NT2/D1-R1

## Nc1ncn([C@H]2C[C@H](O)[C@@H](CO)O2)c(=O)n1 [decitabine, 5-aza-deoxycytidine]
  Cluster 1: genes down-regulated by low dose decitabine in control cells but not in DNMT3B knockdown cells: 129 genes
  Cluster 2: genes induced by decitabine only in control cells and not in sh-DNMT3B cells: 337 genes
